Assay [1] addresses T1, Plasminogen activator inhibitor 1 (Homo sapiens, UniProt P05121). Briefly: Inhibition of human recombinant PAI1 assessed as rate of AMC release after 30 mins.
Another assay deals with Antithrombin-III (Homo sapiens, UniProt P01008). Briefly: Inhibition of antithrombin-3 assessed as residual alpha-thrombin activity.
Assay [2] has as its target T1, Plasminogen activator inhibitor 1. Put plainly: Inhibition of human recombinant PAI1 assessed as rate of AMC release at 300 uM after 30 mins.

Bounds are passed on as bounds.

T1 sequence (P05121 whole entry): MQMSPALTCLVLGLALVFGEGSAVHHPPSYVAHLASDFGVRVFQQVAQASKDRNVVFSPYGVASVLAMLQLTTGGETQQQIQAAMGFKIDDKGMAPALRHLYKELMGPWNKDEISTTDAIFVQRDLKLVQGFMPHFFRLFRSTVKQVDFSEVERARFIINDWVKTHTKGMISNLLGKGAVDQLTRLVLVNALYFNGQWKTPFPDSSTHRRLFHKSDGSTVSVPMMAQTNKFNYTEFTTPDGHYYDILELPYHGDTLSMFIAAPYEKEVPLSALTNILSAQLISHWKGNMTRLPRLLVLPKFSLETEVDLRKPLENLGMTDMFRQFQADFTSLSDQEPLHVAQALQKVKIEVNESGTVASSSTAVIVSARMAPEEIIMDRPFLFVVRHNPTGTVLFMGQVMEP
Sequence of Antithrombin-III (P01008 whole entry): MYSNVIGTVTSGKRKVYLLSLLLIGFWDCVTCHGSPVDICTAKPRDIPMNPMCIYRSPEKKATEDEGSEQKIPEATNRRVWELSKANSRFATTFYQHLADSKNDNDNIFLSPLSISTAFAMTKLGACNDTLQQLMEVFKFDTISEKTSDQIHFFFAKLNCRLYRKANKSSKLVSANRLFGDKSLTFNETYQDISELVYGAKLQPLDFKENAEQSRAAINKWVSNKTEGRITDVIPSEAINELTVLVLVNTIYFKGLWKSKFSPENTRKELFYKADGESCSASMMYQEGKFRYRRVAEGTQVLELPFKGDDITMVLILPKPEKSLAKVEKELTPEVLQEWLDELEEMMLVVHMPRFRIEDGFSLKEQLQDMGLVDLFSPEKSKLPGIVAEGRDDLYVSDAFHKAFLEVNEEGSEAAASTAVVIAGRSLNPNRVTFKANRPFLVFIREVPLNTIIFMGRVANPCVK

`O=S(=O)(c1ccc(O)c(O)c1)N1CCN(S(=O)(=O)c2ccc(O)c(O)c2)CC1`: the IC50 (in assay [1]; at Antithrombin-III) was greater than 300 µM throughout. Also, the inhibition in assay [2] was less than 30%.

In the case of `O=S(=O)(NCCCCCCNS(=O)(=O)c1ccc(O)c(O)c1)c1ccc(O)c(O)c1`, the values for the half-inhibitory concentration (IC50) (in assay [1]; at Antithrombin-III) were 1380 µM and greater than 3000 µM, respectively.

For `CCN(CCN(CC)S(=O)(=O)c1ccccc1)S(=O)(=O)c1ccccc1`, the IC50 (in assay [1]; at Antithrombin-III) was greater than 300 µM in each case.

As to `CCN(CCN(CC)S(=O)(=O)c1cc(O)ccc1O)S(=O)(=O)c1cc(O)ccc1O`, the 50% inhibitory concentration (IC50) (in assay [1]; on Antithrombin-III) was greater than 300 µM throughout. Also, the inhibition in assay [2] is less than 30%.

Take `CCN(CCN(CC)S(=O)(=O)c1ccc(OC)c(OC)c1)S(=O)(=O)c1ccc(OC)c(OC)c1`: the concentration for half-maximal inhibition (IC50) (in assay [1]; at Antithrombin-III) was greater than 300 µM in each case.

With `CCCN(S(=O)(=O)c1ccc(O)c(O)c1)S(=O)(=O)c1ccc(O)c(O)c1`, the results for the IC50 (in assay [1]; on Antithrombin-III) were 2.67 µM and greater than 1000 µM, respectively.

Turning to `CCN(CCN(CC)S(=O)(=O)c1cccc(O)c1)S(=O)(=O)c1cccc(O)c1`, the 50% inhibitory concentration (IC50) in assay [1] is 343 µM; on Antithrombin-III, greater than 1000 µM.

Turning to `CCN(CCN(CC)S(=O)(=O)c1ccc(O)cc1)S(=O)(=O)c1ccc(O)cc1`, the half-inhibitory concentration (IC50) (in assay [1]; at Antithrombin-III) was greater than 300 µM in each case.

Regarding `CCN(CCN(CC)S(=O)(=O)c1ccc(O)c(O)c1)S(=O)(=O)c1ccc(O)c(O)c1`, the 50% inhibitory concentration (IC50) was 9.32 µM in assay [1] and greater than 1000 µM at Antithrombin-III.

Regarding `O=S(=O)(NCCNS(=O)(=O)c1ccc(O)c(O)c1)c1ccc(O)c(O)c1`, the IC50 in assay [1] is 518 µM; on Antithrombin-III, greater than 3000 µM.

On to `O=S(=O)(NCCCCNS(=O)(=O)c1ccc(O)c(O)c1)c1ccc(O)c(O)c1`, for which the IC50 (in assay [1]; at Antithrombin-III) was greater than 3000 µM in each case.

In the case of `O=S(=O)(c1ccc(O)c(O)c1)N(Cc1ccccc1)S(=O)(=O)c1ccc(O)c(O)c1`, the IC50 in assay [1] was 4.82 µM; on Antithrombin-III it was greater than 300 µM.

For `O=S(=O)(c1ccc(O)c(O)c1)N(C1CCCCC1)S(=O)(=O)c1ccc(O)c(O)c1`, the 50% inhibitory concentration (IC50) in assay [1] is 0.594 µM; at Antithrombin-III, greater than 300 µM.

For the compound `CCCCCCN(S(=O)(=O)c1ccc(O)c(O)c1)S(=O)(=O)c1ccc(O)c(O)c1`, the half-maximal inhibitory concentration (IC50) in assay [1] was 0.284 µM; at Antithrombin-III, greater than 300 µM.

On to `CCN(CCN(CC)S(=O)(=O)c1cc(F)c(O)c(F)c1)S(=O)(=O)c1cc(F)c(O)c(F)c1`, for which the values for the 50% inhibitory concentration (IC50) (in assay [1]; at Antithrombin-III) were 128 µM and greater than 3000 µM, respectively.

By IC50 is commonly meant the concentration that gives 50% inhibition. Usually inhibition stands for the percentage by which the read-out fell short of the control.

Values taken from ChEMBL document CHEMBL1159114, “Novel bis-arylsulfonamides and aryl sulfonimides as inactivators of plasminogen activator inhibitor-1 (PAI-1)” (Bioorg Med Chem Lett, 2010).
